One data set has as its system HmPDR1. As to the kind of experiment: Quantitative RT-PCR of HmPDR1 expression in hairy roots. In kind it is cell-based, Hyoscyamus muticus. Conditions: 1 mM CdCl2, H2O as a control. The method, then:
FIG. 3: HmPDR1 expression is induced by CdCl2. Quantitative RT-PCR analysis of HmPDR1 in total RNA from H. muticus hairy roots treated with 1 mM CdCl2 or H2O as a control. Ethidium bromide-stained rRNA is used as a control. The fold increase in the ratio of HmPDR1 transcript to rRNA fluorescence, relative to the value at time point zero, is given below the panels. Time after elicitation is indicated in hours.
To confirm the postulated relationship between the expression of ABC transporter genes and the CdCl2 induced release of alkaloids we performed an expression analysis of the HmPDR1 gene in CdCl2 treated Hyoscyamus hairy roots (FIG. 3).

Data set [1] concerns BY-2 cells transformed with pK7WGD2-ScPDR5-US50. Briefly: Hyoscyamine-induced cell death (Evans blue) in the ScPDR5-US50 line. Conditions: 30 mM hyoscyamine, US50 lines compared to GUS control line. In kind it is cell-based, Nicotiana tabacum. The method, then:
FIG. 2: Hyoscyamine-induced cell death in transformed BY-2 cells. […] Cell death was assayed at two time points (6 hours and 24 hours) by Evans blue staining and is indicated as the fold increase in optical density at OD600 relative to the value at the start of the experiment. Values are the mean of three independent experiments. GUS, US50, W303 and AT represent BY-2 cell lines transformed with pK7WGD2-GUS, pK7WGD2-ScPDR5-US50, pK7WGD2-ScPDR5-W303 and pK7WGD2-AtPDR1 respectively.

Another data set relates to wild type yeast. The settings on record: YPD plates, growth evaluated after two days at 28° C.
The subject of another data set is Wild type BY-2 cells. The settings on record: MSST plates, growth evaluated after 15 days at 26° C.
Another data set concerns tobacco BY-2 cells. The settings on record: Nicotiana tabacum.
Data set [2] concerns BY-2 cell lines expressing the different yeast Pdr5 transporters. Conditions: compared to the control GUS-expressing lines.
The test system of data set [3] is yeast AD3 strain expressing AtPDR1. The settings on record: YPD plates containing the alkaloid.
Data set [4] deals with Transgenic BY-2 cells expressing AtPDR1. Conditions: compared to the control GUS expressing line.
A further data set deals with Pdr5p (Saccharomyces cerevisiae, UniProt P33302). Conditions: Kolaczkowski et al. 1996, 1998; cited from earlier work.

Results on seven compounds are retold here after patent US7622634B2 (priority 2001, dated 2009).

Pdr5p, sequence (P33302 whole entry): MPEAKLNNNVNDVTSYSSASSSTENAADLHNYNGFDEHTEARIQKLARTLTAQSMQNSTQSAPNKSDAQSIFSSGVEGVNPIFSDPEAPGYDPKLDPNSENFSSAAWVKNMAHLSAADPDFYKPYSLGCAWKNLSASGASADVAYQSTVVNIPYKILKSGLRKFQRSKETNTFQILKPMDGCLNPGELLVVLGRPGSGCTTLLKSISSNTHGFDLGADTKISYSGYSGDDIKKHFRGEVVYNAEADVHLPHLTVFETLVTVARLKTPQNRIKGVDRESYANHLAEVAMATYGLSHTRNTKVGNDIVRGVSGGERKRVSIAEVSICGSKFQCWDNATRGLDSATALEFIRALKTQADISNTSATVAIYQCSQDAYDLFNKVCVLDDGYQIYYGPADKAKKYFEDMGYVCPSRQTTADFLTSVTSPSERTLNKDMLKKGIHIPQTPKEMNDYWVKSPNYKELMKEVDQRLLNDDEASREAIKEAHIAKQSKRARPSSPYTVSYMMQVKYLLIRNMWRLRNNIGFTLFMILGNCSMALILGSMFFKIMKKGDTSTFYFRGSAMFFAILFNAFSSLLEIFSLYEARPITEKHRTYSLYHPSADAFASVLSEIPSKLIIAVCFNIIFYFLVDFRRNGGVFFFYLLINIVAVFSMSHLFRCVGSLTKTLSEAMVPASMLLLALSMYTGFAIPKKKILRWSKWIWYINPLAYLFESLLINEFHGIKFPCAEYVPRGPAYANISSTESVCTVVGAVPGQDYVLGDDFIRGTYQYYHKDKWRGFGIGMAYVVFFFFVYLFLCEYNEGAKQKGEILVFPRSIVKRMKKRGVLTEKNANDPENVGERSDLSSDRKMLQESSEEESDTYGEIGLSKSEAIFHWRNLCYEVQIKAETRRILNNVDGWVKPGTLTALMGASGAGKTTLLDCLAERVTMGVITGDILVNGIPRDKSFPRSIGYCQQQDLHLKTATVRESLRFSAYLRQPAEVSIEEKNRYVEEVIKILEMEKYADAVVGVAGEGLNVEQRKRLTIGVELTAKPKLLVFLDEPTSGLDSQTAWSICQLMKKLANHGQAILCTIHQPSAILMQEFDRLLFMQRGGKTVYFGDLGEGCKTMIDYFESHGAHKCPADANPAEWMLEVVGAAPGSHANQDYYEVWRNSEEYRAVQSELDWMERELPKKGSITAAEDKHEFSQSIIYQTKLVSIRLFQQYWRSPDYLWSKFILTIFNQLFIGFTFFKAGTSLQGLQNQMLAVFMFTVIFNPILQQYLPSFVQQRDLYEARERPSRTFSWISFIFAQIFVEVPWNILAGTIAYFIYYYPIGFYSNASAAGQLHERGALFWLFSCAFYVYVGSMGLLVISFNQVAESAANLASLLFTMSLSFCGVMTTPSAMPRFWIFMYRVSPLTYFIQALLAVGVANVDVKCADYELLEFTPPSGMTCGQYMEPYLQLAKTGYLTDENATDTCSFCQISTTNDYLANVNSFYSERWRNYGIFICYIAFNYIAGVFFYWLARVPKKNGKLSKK

Take `[Cl][Cd][Cl]` [CdCl2]: the HmPDR1 expression entry in the data set on HmPDR1 is on record as “upregulated”.

Consider `CN1[C@@H]2CC[C@H]1C[C@@H](OC(=O)[C@H](CO)c1ccccc1)C2` [hyoscyamine], for which the “decrease in hyoscyamine induced cell death” value in data set [1] was determined as 15%. Further, the “level tolerated by wild type yeast” value in the data set on wild type yeast was 50 mM. In the data set on Wild type BY-2 cells, the “level tolerated without severe growth problems” value stood at 30000 µM. Further, the “level causing the death of all suspension cultured tobacco cells” value in the data set on tobacco BY-2 cells is 50000 µM.

In the case of `CN1CCCC1c1cccnc1` (stereo not drawn) [nicotine], the “level tolerated by wild type yeast” value in the data set on wild type yeast is recorded as 15 mM. For the same compound, in the data set on Wild type BY-2 cells, the “level tolerated without severe growth problems” value was 3000 µM. The “level causing the death of all suspension cultured tobacco cells” value in the data set on tobacco BY-2 cells came to 20000 µM. For the same compound, the “tolerance in growth performance assay” value in [2] is reported as “increased tolerance”. The “growth of the pdr5 mutant strain expressing AtPDR1 on the alkaloid” value in data set [3] was “restore the growth”. For the same compound, in [4], the “tolerance of AtPDR1 transgenic BY-2 cells” value was “enhanced tolerance”.

For the compound `CN1[C@@H]2C[C@@H](OC(=O)[C@H](CO)c3ccccc3)C[C@H]1[C@@H]1O[C@@H]12` [scopolamine], the “level tolerated by wild type yeast” value with wild type yeast was determined as 100 mM.

Take `CC(=O)O[C@H]1C(=O)[C@@]2(C)[C@H]([C@H](OC(=O)c3ccccc3)[C@]3(O)C[C@H](OC(=O)[C@H](O)[C@@H](NC(=O)c4ccccc4)c4ccccc4)C(C)=C1C3(C)C)[C@]1(OC(C)=O)CO[C@@H]1C[C@@H]2O` [taxol]: at Pdr5p, the “substrate for Pdr5p mediated multidrug transport” value (from here on “substrate”) was “substrates”.

As to `CC[C@]1(O)C[C@@H]2CN(CCc3c([nH]c4ccccc34)[C@@](C(=O)OC)(c3cc4c(cc3OC)N(C)[C@H]3[C@@](O)(C(=O)OC)[C@H](OC(C)=O)[C@]5(CC)C=CCN6CC[C@]43[C@@H]65)C2)C1` [vinblastine], the “substrate” value at Pdr5p is given as “substrates”.

For `CC[C@]1(O)C[C@H]2CN(CCc3c([nH]c4ccccc34)[C@@](C(=O)OC)(c3cc4c(cc3OC)N(C=O)[C@H]3[C@@](O)(C(=O)OC)[C@H](OC(C)=O)[C@]5(CC)C=CCN6CC[C@]43[C@@H]65)C2)C1` [vincristine], on Pdr5p, the “substrate” value is recorded as “substrates”.
